Measured values taken from patent publication US20180050055A1, “Exploiting nutrient deprivation for modulation of glycosylation - research diagnostic, therapeutic, and biotechnology applications” (priority 2016, published 2018).

Columns and labels:
Assay type in all cases: cell-based, Human
[1] = system: cancer and normal control cells; assay: TUNEL assay flow cytometry of apoptosis after sialic acid treatment
Procedure: For this purpose, cells were fixed by suspending them in 70% (v/v) ethanol and stored at 4° C. for 15 min, washed twice with cold PBS, and then placed in 96-well plates (1×10^4 cells per well). The cells were then stained with the fluorescein isothiocyanate-labeled lectins (SWGA, WGA, SNA and MAL-1). For the comparison of mean fluorescence intensities, the instrument settings for fluorescence and compensation were the same for all experiments. Data were collected from at least 10,000 cells for each sample. For TUNEL assay, cells were incubated with DNA-labeling solution (10 μL reaction buffer, 0.75 μL TdT enzyme, 8 μL BrdUTP, 31.25 μL of dH2O) for 1 h at 25° C. Each sample was then exposed to an antibody solution consisting of 5 μL Alexa Fluor 488 labeled anti-BrdU antibody with 95 μL rinse solution and allowed to react for 20 min.
FIG. 6: Optimization of conditions for nutrient deprivation and rescue via sialic acid supplementation. […] Data are the representative of five independent experiments.

MCF7 = assay: Quantification of CMP-Neu5Ac, UDP-GlcNAc, surface Neu5Ac and surface Neu5Gc (HPLC)
Procedure: (§1) Protocol for nutrient deprivation of cells in suspension: Step 1, cell cultures were harvested as described above. Step 2, cells were resuspended in serum-free RPMI-1640 medium and pelleted by centrifugation at 900×g for 5 min; during this step cells experience 10 min of nutrient deprivation in serum-free media without Neu5Ac. Step 3, the cells were rinsed twice in 37° C. PBS by centrifugation for 5 min and 1 mL aliquots of 1×10^4 cells were pipetted gently into 15 mL BD Falcon tubes; during this step the cells experience an additional 20 min of nutrient-deprivation. Step 3, cell suspension aliquots corresponding to […] were equilibrated in tubes containing Neu5Ac-PBS buffer by placing the tubes with opened caps for 60 min in a humidified incubator at 37° C. and 5% CO2 with continuous shaking at 30 strokes per minute; during this Neu5Ac-supplementation step, negative controls were maintained in non-supplemented PBS. Step 4, the Neu5Ac-PBS solution was decanted, the tubes were gently tapped to loosen the gravity-pelleted cells, and then rinsed twice in warm (37° C.) PBS followed by pelleting by 5 min of centrifugation each time, this process provided an additional 30 min of nutrient-deprivation in the absence of supplemental Neu5Ac. The entire 5 step process results in 2 h of nutrient deprivation, after which the cells were analyzed by the methods listed below with the exception of the wound healing assays and lectin staining which used cells that were nutrient-deprived under adherent conditions. Protocol for nutrient deprivation of adherent cells. Step 1, cells were cultured on sterile glass microscope cover slips for two days. Step 2, the cover slips were placed in a sterile plastic rack in warm (37° C.) PBS buffer for 30 min, then the PBS was replaced with Neu5Ac-PBS solution for 60 min to provide Neu5Ac supplementation (controls were maintained in non-supplemented PBS), and then the cell-laden cover slips were placed back in PBS buffer for 30 min. All incubations were performed in a humidified incubator at 37° C. and 5% CO2 with continuous shaking at 30 strokes per minute. Overall this process mimics the non-adherent treatment conditions with respect to the duration of nutrient-deprivation (2 h total) and Neu5Ac supplementation (60 min).
(§2) Cells were split and cultured (before feeding experiments) in RPMI1640 medium supplemented with 1% heat-inactivated human serum (RPMI/HUS) instead of FBS, resulting in chase-out of existing Neu5Gc. Subsequently, cells were fed with 10 mM Neu5Gc in RPMI/HUS medium or under nutrient deprived conditions as described above.
(§3) PBS-washed cells (1 Million) (untreated or Neu5Ac treated) were lysed by hypotonic shock in 1 mL water (15 min, 4° C.). The intracellular cytidine-5′-monophospho-N-acetylneuraminic acid (CMP-Neu5Ac) and uridine-5′-diphospho-N-acetyl-D-glucosamine (UDP-GlcNAc) were purified from the cell lysates and analyzed by ion-pair reversed-phase high performance liquid chromatography (IP RP HPLC) using a ODS column as described. Cell membrane-bound Neu5Ac (from untreated and Neu5Ac treated) and Neu5Gc (from untreated and Neu5Gc treated) were determined by acid hydrolysis followed by derivatization with 1,2-diamino-4,5-methylenedioxybenze (DMB) and HPLC separation as previously described. The content of CAMP-Neu5Ac, UDP-GlcNAc, surface Neu5Ac, and surface Neu5Gc was shown in nano mole per mg cell protein from five independent experiments.
(§4) Table-1: Quantification of nucleotide sugars, surface Nec5Ac, UDP-GlcNAc, Neu5Gc: Cells were treated in the presence and absence of 10 mM Nue5Ac for 2 h under nutrient deprivation and quantity of CMP-Neu5Ac (A), surface Neu5Ac (B), and UDP-GlcNAc (C) were determined. D. For quantification of surface Neu5Gc cells were treated with 10 mM Neu5Gc for 2 hrs under nutrient deprivation. The content of CMP-Neu5Ac, UDP-GlcNAc and Neu5Gc was shown in nano mole per mg cell protein from 5 independent experiments.

MCF10A = assay: as above
Procedure: as §1, §2, §3, §4

T47D = assay: as above
Procedure: as §1, §2, §3, §4

MDA MB231 = assay: as above
Procedure: as §1, §2, §3, §4

HB4A = assay: as above
Procedure: as §1, §2, §3, §4

MDA MB231 cells = assay: Microarray of genes upregulated after sialic acid treatment under nutrient deprivation
Procedure: The membrane glycosylation of the cancer cells is synchronized by the alteration of gene expression. The microarray was performed aiming to identify the genes that had undergone changes induced by the enriched sugar environment. […] Inventors examined the status of the expression of those genes at both transcriptional and translational level, in another word, at mRNA and protein level by performing the quantitative real time polymerase chain reaction (qRT-PCR) and immunoblot. Remarkably, qRT-PCR and Western blot are 2 techniques that are used to quantify the expression of mRNA and protein. Data of qRT-PCR and Western blot were in strong agreement with the microarray data indicating a clear link between the expression of those genes and glycosylation of cell membrane domain. This patent aims to pursue the cancer cell management by targeting those genes at mRNA and protein level. Small interference RNA (siRNA) and small hairpin RNA (shRNA) will be designed to knockdown the mRNA. Similarly, the functions of the genes at protein level will be inhibited or disrupted by using antibody, small peptide, pharmaceutical blocker, and targeted toxin. Regression of cancer cells will be verified following transcriptional and translational manipulation.

[2] = system: cancer cells T47D, MCF7, MDA MB231; assay: Membrane glycosylation of cancer cells compared to normal control cells (Table 1 summary); details: 10 mM, all the cancer cells compared to control normal cells
Procedure: as §3
Human normal mammary epithelial cell lines MCF10A and HB4A and breast cancer cell lines T47D, MCF7 and MDA MB231 (American Type Culture Collection, USA) used in the study were cultured and treated according to the methods described earlier. Cells were nutritionally deprived using different time points followed by the sialic acid supplementation according to the method described earlier. […] The data were in strong agreement with the immunoblot data which were derived by assessing different enzymes responsible for glycosylation. […]

[3] = MCF7, treated with 10 mM Neu5Ac for 2 h under nutrient deprivation
[4] = treated with 10 mM Neu5Ac for 2 h under nutrient deprivation
[5] = MDA MB231, treated with 10 mM Neu5Ac for 2 h under nutrient deprivation
[6] = 10 mM sialic acid under nutrient deprivation relative to the untreated control
[7] = treated with 10 mM Neu5Gc for 2 hrs under nutrient deprivation

CC(=O)N[C@H]1[C@H]([C@H](O)[C@H](O)CO)OC(O)(C(=O)O)C[C@@H]1O (some centres unmarked) [Neu5Ac, N-acetyl-5-neuraminic acid]
apoptosis ([1]; 180 minutes, both cell types, cancer and normal control cells): significant apoptosis | apoptosis ([1]; 240 minutes, both cell types, cancer and normal control cells): significant apoptosis | apoptosis ([1]; cells treated for 120 minutes, 10 mM sialic acid, nutrient deprived condition): no apoptosis | CMP-Neu5Ac (MCF7; [3]): 2.253 ± 1.77 nano mole per mg cell protein | UDP-GlcNAc (MCF7; [3]): 12.40 ± 3.66 nano mole per mg cell protein | surface Neu5Ac (MCF7; [3]): 7.05 ± 3.95 | CMP-Neu5Ac (MCF10A; [4]): 0.45 ± 1.92 nano mole per mg cell protein | UDP-GlcNAc (MCF10A; [4]): 5.18 ± 2.52 nano mole per mg cell protein | surface Neu5Ac (MCF10A; [4]): 1.81 ± 2.15 | CMP-Neu5Ac (T47D; [4]): 1.06 ± 1.42 nano mole per mg cell protein | UDP-GlcNAc (T47D; [4]): 6.513 ± 5.3 nano mole per mg cell protein | surface Neu5Ac (T47D; [4]): 5.07 ± 4.56 | CMP-Neu5Ac (MDA MB231; [5]): 2.496 ± 2.63 nano mole per mg cell protein | UDP-GlcNAc (MDA MB231; [5]): 12.53 ± 4.2 nano mole per mg cell protein | surface Neu5Ac (MDA MB231; [5]): 7.12 ± 4.91 | CMP-Neu5Ac (HB4A; [4]): 0.51 ± 1.33 nano mole per mg cell protein | UDP-GlcNAc (HB4A; [4]): 5.32 ± 7.41 nano mole per mg cell protein | surface Neu5Ac (HB4A; [4]): 1.83 ± 2.09 | Log2 Ratio, CHI3L2 (MDA MB231 cells; [6]): 2.68 | Log2 Ratio, EQTN (MDA MB231 cells; [6]): 3.078 | Log2 Ratio, OSMR (MDA MB231 cells; [6]): 2.215 | Log2 Ratio, PCMTD1 (MDA MB231 cells; [6]): 2.118 | Log2 Ratio, PHLDA1 (MDA MB231 cells; [6]): 2.626 | Log2 Ratio, RICTOR (MDA MB231 cells; [6]): 2.334 | Log2 Ratio, RSRP1 (MDA MB231 cells; [6]): 2.33 | Log2 Ratio, RUNX2 (MDA MB231 cells; [6]): 2.21 | Log2 Ratio, SCG2 (MDA MB231 cells; [6]): 2.171 | Log2 Ratio, SEC24D (MDA MB231 cells; [6]): 2.199 | expression of 10 particular genes in sialic acid treated cancer cells (MDA MB231 cells; compared to normal control cells): more than 5 folds

O=C(CO)N[C@H]1[C@H]([C@H](O)[C@H](O)CO)OC(O)(C(=O)O)C[C@@H]1O (some centres unmarked) [Neu5Gc, N-glycolylneuraminic acid]
glycosylation of membrane [2]: upregulated the glycosylation significantly | surface Neu5Gc (MCF7; MCF7, treated with 10 mM Neu5Gc for 2 hrs under nutrient deprivation): 1.58 ± 0.912 nano mole per mg cell protein | surface Neu5Gc (MCF10A; [7]): 0.177 ± 0.31 nano mole per mg cell protein | surface Neu5Gc (T47D; [7]): 0.608 ± 0.675 nano mole per mg cell protein | surface Neu5Gc (MDA MB231; MDA MB231, treated with 10 mM Neu5Gc for 2 hrs under nutrient deprivation): 1.79 ± 0.982 nano mole per mg cell protein | surface Neu5Gc (HB4A; [7]): 0.182 ± 0.73 nano mole per mg cell protein
